Key:
HEK293T cells = experiment: Expression efficiency of capped luciferase mRNAs in HEK293T cells; type: cell-based; settings: 6 h after transfection of capped luciferase mRNA
Protocol: • 1) HNE293T cells were cultured in DMEM medium containing 10% FBS and penicillin/streptomycin at 37°C and 5% CO2. • 2) The cultured HEK293T cells were spread in a 96-well plate with 1.25 × 10^4 cells per well. • 3) After the cells completely adhered to the wall, 0.5 µg of a mixture of mRNA sample and Polyplus jet[…] was added to each well of cells, and cultured at 37°C and 5% CO2 for 6 h. • 4) The growth medium was removed from the cells to be tested and the cells were rinsed with PBS. After centrifugation to remove PBS, 50 µL of 1x lysis buffer was added thereto, and cells and all liquid were transferred to a microcentrifuge tube, and then centrifuged at 12000 x g at 4°C for 2 min. • 5) The supernatant was transferred to a new tube. Fluorescence readings were detected using the ONE-Glo Luciferase Assay System Kit.
All test compounds, N-7413, negative control and blank control were tested under the same conditions, and some experimental results in the test results are shown in Table 3. Table 3. Relative fluorescence readings for capped mRNAs
The assay was performed according to the method described in Example 21. All test compounds, N-7413, negative control and blank control were tested under the same conditions, and some experimental results in the test results are shown in Table 5. Table 5 Relative fluorescence readings for capped mRNAs

T7 RNA Polymerase = T7 RNA Polymerase (Escherichia phage T7, UniProt P00573); experiment: Detection of the efficiency of mRNA capping synthesis (in vitro transcription, product yield); type: biochemical; settings: 20 µL mRNA synthesis reaction system
Sequence of T7 RNA Polymerase (P00573 whole entry): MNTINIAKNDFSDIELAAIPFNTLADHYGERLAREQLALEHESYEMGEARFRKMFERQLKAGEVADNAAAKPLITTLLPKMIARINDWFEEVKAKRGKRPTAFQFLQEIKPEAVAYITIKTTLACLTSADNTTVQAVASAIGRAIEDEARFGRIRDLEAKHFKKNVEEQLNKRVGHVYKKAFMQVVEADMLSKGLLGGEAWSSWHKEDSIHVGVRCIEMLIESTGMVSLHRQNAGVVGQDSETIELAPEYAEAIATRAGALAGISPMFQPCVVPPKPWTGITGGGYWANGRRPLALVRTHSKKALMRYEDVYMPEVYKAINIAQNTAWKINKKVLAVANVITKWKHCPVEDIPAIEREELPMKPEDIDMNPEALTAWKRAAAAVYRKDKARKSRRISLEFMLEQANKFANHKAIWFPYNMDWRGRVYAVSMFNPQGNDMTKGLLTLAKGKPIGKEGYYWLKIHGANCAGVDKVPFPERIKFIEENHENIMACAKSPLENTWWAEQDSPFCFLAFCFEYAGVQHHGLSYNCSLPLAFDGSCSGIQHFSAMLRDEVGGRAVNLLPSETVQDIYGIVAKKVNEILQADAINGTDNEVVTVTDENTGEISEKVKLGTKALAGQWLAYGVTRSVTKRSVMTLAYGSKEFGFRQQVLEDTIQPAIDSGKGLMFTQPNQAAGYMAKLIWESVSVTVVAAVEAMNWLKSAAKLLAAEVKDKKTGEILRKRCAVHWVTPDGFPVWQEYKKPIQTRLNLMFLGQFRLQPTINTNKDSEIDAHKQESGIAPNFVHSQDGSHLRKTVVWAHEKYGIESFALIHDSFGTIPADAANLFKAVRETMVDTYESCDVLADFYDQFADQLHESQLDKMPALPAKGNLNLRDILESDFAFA
Protocol: • 1) The plasmids were linearized and the DNA templates were purified. • 2) The mRNA was synthesized by in vitro transcription, using the capping structure prepared in the present disclosure, positive control CleanCap®AG (3'OMe) (Trilink, N-7413), negative control (uncapped mRNA) and blank control (DNase/RNase-Free water), respectively. Reaction system
The reaction was carried out at 37°C for 2 to 3 h. TURBO DNase digestion was carried out for 15 min. The mRNA was precipitated by LiCl for 30 min or more or overnight, and the mRNA precipitate was washed with 75% ethanol, dried briefly to evaporate the ethanol, and the mRNA was redissolved with RNase-Free water.
In the reaction system listed in Table 1, since the solubility of different test compounds varies in different solutions, adjustments can be made as needed. For ease of operation, the commonly used concentrations are 10 mM and 100 mM. […] If the initial concentration of the test compound is 10 mM, the dosage is 8 µL. Regardless of the initial concentration, the dosages of different test compounds were the same, and the final concentrations were also the same.
For example, when testing compounds S17 and S19, their initial concentration was 10 mM, and the addition volume was 8 µL. When testing compounds 5 and 6, their initial concentration was 100 mM, and the addition volume was 0.8 µL.
The assay was performed according to the method described in Example 20.

[1] = 0.5 µg per well, reading of N-7413 = 1 (Table 3)
[2] = test compound 4 mM, 37°C 2 to 3 h (Table 2)
[3] = reading of N-7413 = 1 (Table 5)

Compound	Relative fluorescence reading (HEK293T cells; [1])	Final product mass (T7 RNA Polymerase; [2])	Relative fluorescence reading (HEK293T cells; [3])	Final product mass (T7 RNA Polymerase; method of Example 20 (Table 4))
COCCOCCOCC(=O)NC[C@H]1[C@@H](O)[C@H](n2c[n+](C)c3c(=O)[nH]c(N)nc32)O[C@@H]1COP(=O)([O-])OP(=O)(O)OP(=O)(O)OC[C@H]1O[C@@H](n2cnc3c(N)ncnc32)[C@H](OC)[C@@H]1OP(=O)(O)OC[C@H]1O[C@@H](n2cnc3c(=O)[nH]c(N)nc32)[C@H](O)[C@@H]1O [Compound 5]	1.86	180 µg	–	–
COCCOCCOCCOCCOCC(=O)NC[C@H]1[C@@H](O)[C@H](n2c[n+](C)c3c(=O)[nH]c(N)nc32)O[C@@H]1COP(=O)([O-])OP(=O)(O)OP(=O)(O)OC[C@H]1O[C@@H](n2cnc3c(N)ncnc32)[C@H](OC)[C@@H]1OP(=O)(O)OC[C@H]1O[C@@H](n2cnc3c(=O)[nH]c(N)nc32)[C@H](O)[C@@H]1O [Compound 6]	1.90	117 µg	–	–
COC[C@]1(F)[C@@H](COP(=O)(O)OP(=O)(O)OP(=O)(O)OC[C@H]2O[C@@H](n3cnc4c(N)ncnc43)[C@H](OC)[C@@H]2OP(=O)([O-])OC[C@H]2O[C@@H](n3cnc4c(=O)[nH]c(N)nc43)[C@H](O)[C@@H]2O)O[C@@H](n2c[n+](C)c3c(=O)[nH]c(N)nc32)[C@@H]1O [Compound D1]	–	–	2.07	–
COC1C(OP(=O)([O-])OCC2OC(n3cnc4c(=O)[nH]c(N)nc43)C(O)C2O)C(COP(=O)(O)OP(=O)(O)OP(=O)(O)OCC2OC(n3c[n+](C)c4c(=O)[nH]c(N)nc43)C(O)C2(F)CN=[N+]=[N-])OC1n1cnc2c(N)ncnc21 (stereo not shown) [Compound D20]	–	–	1.23	113 µg
COCC1(F)C(COP(=O)(O)CP(=O)(O)OP(=O)(O)OCC2OC(n3cnc4c(N)ncnc43)C(OC)C2OP(=O)([O-])OCC2OC(n3cnc4c(=O)[nH]c(N)nc43)C(O)C2O)OC(n2c[n+](C)c3c(=O)[nH]c(N)nc32)C1O (stereo not shown) [Compound D23]	–	–	0.93	96 µg
COCC1(F)C(COP(=O)(O)OP(=O)(O)CP(=O)(O)OCC2OC(n3cnc4c(N)ncnc43)C(OC)C2OP(=O)([O-])OCC2OC(n3cnc4c(=O)[nH]c(N)nc43)C(O)C2O)OC(n2c[n+](C)c3c(=O)[nH]c(N)nc32)C1O (stereo not shown) [Compound D24]	–	–	1.08	83 µg
COCC1(F)C(COP(=O)(O)OP(=O)(O)OP(=O)(O)OP(=O)(O)OCC2OC(n3cnc4c(N)ncnc43)C(OC)C2OP(=O)([O-])OCC2OC(n3cnc4c(=O)[nH]c(N)nc43)C(O)C2O)OC(n2c[n+](C)c3c(=O)[nH]c(N)nc32)C1O (stereo not shown) [Compound D28]	–	–	1.12	92 µg
CO[C@@H]1[C@H](OP(=O)([O-])OC[C@H]2O[C@@H](n3cnc4c(=O)[nH]c(N)nc43)[C@H](O)[C@@H]2O)[C@@H](COP(=O)(O)OP(=O)(O)OP(=O)(O)OC[C@H]2O[C@@H](n3c[n+](C)c4c(=O)[nH]c(N)nc43)[C@H](O)[C@]2(F)CNC(C)=O)O[C@H]1n1cnc2c(N)ncnc21 [Compound D31]	–	–	1.73	133 µg
CO[C@@H]1[C@H](OP(=O)([O-])OC[C@H]2O[C@@H](n3cnc4c(=O)[nH]c(N)nc43)[C@H](O)[C@@H]2O)[C@@H](COP(=O)(O)OP(=O)(O)OP(=O)(O)OC[C@H]2O[C@@H](n3c[n+](C)c4c(=O)[nH]c(N)nc43)[C@H](O)[C@]2(F)C(=O)N(C)C)O[C@H]1n1cnc2c(N)ncnc21 [Compound D82]	–	–	1.63	146 µg
COC1C(OP(=O)([O-])OCC2OC(n3cnc4c(=O)[nH]c(N)nc43)C(O)C2O)C(COP(=O)(O)OP(=O)(O)OP(=O)(O)OCC2OC(n3c[n+](C)c4c(=O)[nH]c(N)nc43)C(O)C2(C)F)OC1n1cnc2c(N)ncnc21 (stereo not shown) [Compound D85]	–	–	1.6	120 µg
COCC1(N=[N+]=[N-])C(COP(=O)(O)OP(=O)(O)OP(=O)(O)OCC2OC(n3cnc4c(N)ncnc43)C(OC)C2OP(=O)([O-])OCC2OC(n3cnc4c(=O)[nH]c(N)nc43)C(O)C2O)OC(n2c[n+](C)c3c(=O)[nH]c(N)nc32)C1O (stereo not shown) [Compound D86]	–	–	1.35	111 µg
CNc1nc2c(c(=O)[nH]1)[n+](C)cn2[C@@H]1O[C@H](COP(=O)(O)OP(=O)(O)OP(=O)(O)OC[C@H]2O[C@@H](n3cnc4c(N)ncnc43)[C@H](OC)[C@@H]2OP(=O)([O-])OC[C@H]2O[C@@H](n3cnc4c(=O)[nH]c(N)nc43)[C@H](O)[C@@H]2O)[C@@](F)(COC)[C@H]1O [Compound D87]	–	–	1.55	98 µg
COCC1(F)C(COP(=O)(O)OP(=O)(O)OP(=O)(O)OCC2OC(n3cnc4c(N)ncnc43)C(OC)C2OP(=O)([O-])OCC2OC(n3cnc4c(=O)[nH]c(N)nc43)C(O)C2O)OC(n2c[n+](Cc3ccccc3)c3c(=O)[nH]c(N)nc32)C1O (stereo not shown) [Compound D88]	–	–	2.04	114 µg
CC[n+]1cn(C2OC(COP(=O)(O)OP(=O)(O)OP(=O)(O)OCC3OC(n4cnc5c(N)ncnc54)C(OC)C3OP(=O)([O-])OCC3OC(n4cnc5c(=O)[nH]c(N)nc54)C(O)C3O)C(F)(COC)C2O)c2nc(N)[nH]c(=O)c21 (stereo not shown) [Compound D89]	–	–	1.52	110 µg
C=CC[n+]1cn(C2OC(COP(=O)(O)OP(=O)(O)OP(=O)(O)OCC3OC(n4cnc5c(N)ncnc54)C(OC)C3OP(=O)([O-])OCC3OC(n4cnc5c(=O)[nH]c(N)nc54)C(O)C3O)C(F)(COC)C2O)c2nc(N)[nH]c(=O)c21 (stereo not shown) [Compound D90]	–	–	1.44	100 µg
COCC1(F)C(COP(=O)(O)OP(=O)(O)OP(=O)(O)OCC2OC(n3cnc4c(N)ncnc43)C(OC)C2OP(=O)([O-])OCC2OC(n3cnc4c(=O)[nH]c(N)nc43)C(O)C2O)OC(n2c[n+](Cc3ccc(F)cc3)c3c(=O)[nH]c(N)nc32)C1O (stereo not shown) [Compound D91]	–	–	1.93	113 µg
COCC1(F)C(COP(=O)(O)OP(=O)(O)OP(=O)(O)OCC2OC(n3cnc4c(N)ncnc43)C(OC)C2OP(=O)([O-])OCC2OC(n3cnc4c(=O)[nH]c(N)nc43)C(O)C2O)OC(n2c[n+](Cc3ccc(Cl)cc3)c3c(=O)[nH]c(N)nc32)C1O (stereo not shown) [Compound D92]	–	–	1.78	109 µg
COCC1(F)C(COP(=O)(O)OP(=O)(O)OP(=O)(O)OCC2OC(n3cnc4c(N)ncnc43)C(OC)C2OP(=O)([O-])OCC2OC(n3cnc4c(=O)[nH]c(N)nc43)C(O)C2O)OC(n2c[n+](Cc3ccc(C)cc3)c3c(=O)[nH]c(N)nc32)C1O (stereo not shown) [Compound D93]	–	–	1.95	105 µg
COCC1(F)C(COP(=O)(O)OP(=O)(O)OP(=O)(O)OCC2OC(n3cnc4c(N)ncnc43)C(OC)C2OP(=O)([O-])OCC2OC(n3cnc4c(=O)[nH]c(N)nc43)C(O)C2O)OC(n2c[n+](Cc3ccc(OC)cc3)c3c(=O)[nH]c(N)nc32)C1O (stereo not shown) [Compound D94]	–	–	1.85	116 µg
CNc1ncnc2c1ncn2C1OC(COP(=O)(O)OP(=O)(O)OP(=O)(O)OCC2OC(n3c[n+](C)c4c(=O)[nH]c(N)nc43)C(O)C2(C)F)C(OP(=O)([O-])OCC2OC(n3cnc4c(=O)[nH]c(N)nc43)C(O)C2O)C1OC (stereo not shown) [Compound D95]	–	–	0.83	111 µg
CNc1ncnc2c1ncn2C1OC(COP(=O)(O)OP(=O)(O)OP(=O)(O)OCC2OC(n3c[n+](C)c4c(=O)[nH]c(N)nc43)C(O)C2(F)COC)C(OP(=O)([O-])OCC2OC(n3cnc4c(=O)[nH]c(N)nc43)C(O)C2O)C1OC (stereo not shown) [Compound D96]	–	–	2.96	94 µg
COCC1(F)C(COP(=O)(O)OP(O)(=S)OP(=O)(O)OCC2OC(n3cnc4c(N)ncnc43)C(OC)C2OP(=O)([O-])OCC2OC(n3cnc4c(=O)[nH]c(N)nc43)C(O)C2O)OC(n2c[n+](C)c3c(=O)[nH]c(N)nc32)C1O (stereo not shown) [Compound D97]	–	–	2.05	91 µg
